Test results published in PMC7586811 (Journal of Clinical Pharmacology, 2020).
Where two headings read alike, the source gives them in different places.

Assays:
[1] = Safety and tolerability in healthy participants; assay type: in vivo, human; conditions: for participants who experienced TEAEs: n = 18; for TEAEs considered related to the drug: investigator assessment
[2] = dose range from 5 to 45 mg, relapsed or refractory B‐cell malignancies; cited from earlier work
[3] = phase 1/2 study; cited from earlier work
[4] = test system: other PI3K isoforms; conditions: cited from earlier work
[5] = test system: P‐glycoprotein (P‐gp); conditions: in vitro; ref data on file, Incyte Corporation; cited from earlier work
[6] = test system: CYP3A4; conditions: recombinant human CYP isozymes, earlier in vitro studies; cited from earlier work
[7] = test system: major CYPs; conditions: earlier in vitro studies; cited from earlier work
[8] = test system: P‐glycoprotein (P‐gp); conditions: read-out: P‐gp inhibition IC50; in vitro; ref data on file, Incyte Corporation; cited from earlier work
[9] = not given; remark: listed apart in the source
[10] = cited from earlier work
[11] = test system: human OATP1B and OATP1B3; conditions: in vitro; ref data on file, Incyte Corporation; cited from earlier work
[12] = clinical use; cited from earlier work
[13] = test system: CYP3A4; conditions: human liver microsomes; ref data on file, Incyte Corporation; cited from earlier work
[14] = concomitant rifampin 600 mg versus parsaclisib 20 mg alone
[15] = parsaclisib 20 mg single oral dose alone, fasted, healthy participants, n = 18
[16] = concomitant itraconazole 200 mg versus parsaclisib 10 mg alone
[17] = parsaclisib 10 mg single oral dose alone, fasted, healthy participants, n = 18

## CO[C@H]1/C=C/O[C@@]2(C)Oc3c(C)c(O)c4c(O)c(c(/C=N/N5CCN(C)CC5)c(O)c4c3C2=O)NC(=O)/C(C)=C\C=C\[C@H](C)[C@H](O)[C@@H](C)[C@@H](O)[C@@H](C)[C@H](OC(C)=O)[C@@H]1C [rifampin, reference compound]
[1]; of all 36 participants, all in cohort 2, considered related to rifampin
  participants reporting generalized pruritus and maculopapular rash: 5.6%

## CCOc1c([C@H](C)n2nc(C)c3c(N)ncnc32)cc(Cl)c(F)c1[C@@H]1CNC(=O)C1 [Parsaclisib]
[1]; both cohorts
  dose interruptions or reductions, discontinuations, serious AEs, deaths due to TEAEs: No dose interruptions or reductions, participant discontinuations, serious AEs, or deaths due to TEAEs
[1]; cohort 1: parsaclisib 10 mg + itraconazole 200 mg
  participants who experienced TEAEs: 27.8%
[1]; cohort 2, day 44, not considered related to parsaclisib or rifampin
  participants with grade 4 TEAE (increased creatine phosphokinase): 5.6%
[1]; cohort 2: parsaclisib 20 mg + rifampin 600 mg
  participants who experienced TEAEs: 44.4%
[1]; healthy participants
  TEAEs considered related to the drug: No TEAE was considered related
[1]; of all 36 participants, all cases in cohort 2 (parsaclisib + rifampin)
  participants reporting headache (most common TEAE): 13.9%
[1]; single‐dose parsaclisib alone or combined with itraconazole or rifampin, healthy participants
  overall safety and tolerability: safe and well tolerated
[2]
  dose‐exposure relationship at steady state: linear
[3]
  dose‐limiting toxicities: no dose‐limiting toxicities identified
[4]
  selectivity relative to other PI3K isoforms: approximately 20 000 fold
[5]
  P‐gp substrate: concentration at which efflux transport is saturated: > 100 µM
[6]
  CYP isozyme responsible for metabolism: primarily metabolized by CYP3A4
[7]
  inhibition of major CYPs: not an inhibitor of major CYPs tested
[8]
  IC50: 18.1 µM
[14]
  decrease of AUC0‐∞: 77%
  increase in geometric mean CL/F: approximately 4.4 fold
  reduction of Cmax: 43%
  shortening of mean t½,β: 71%
[15]
  CL/F, Geometric Mean: 2.9 L/h
  CL/F, Mean ± SD: 3.0 ± 0.5 L/h
Single 20‐mg dose, concomitant rifampin
  decrease in the exposure of parsaclisib: approximately 4 fold
[9]; [16]
  decrease in geometric mean CL/F: approximately 51%
  increase in geometric mean AUC0‐∞: 107%
  increase in geometric mean Cmax: 21%
  prolongation of mean t½,β: 59%
  reduction of mean Vz/F: approximately 24%
[9]; [17]
  CL/F, Geometric Mean: 2.9 L/h
  CL/F, Mean ± SD: 2.9 ± 0.3 L/h
[9]; single 10‐mg dose, concomitant itraconazole
  increase in the exposure of parsaclisib: approximately 2 fold
[10]; clinical plasma samples, ref data on file, Incyte Corporation
  major metabolites in clinical plasma samples: no major metabolites were detected
[10]; in vitro, rat, dog, and human
  human‐specific metabolite: no human‐specific metabolite identified
[11]
  substrate of human OATP1B and OATP1B3: not likely a substrate

## CCC(C)n1ncn(-c2ccc(N3CCN(c4ccc(OCC5COC(Cn6cncn6)(c6ccc(Cl)cc6Cl)O5)cc4)CC3)cc2)c1=O (stereo not shown) [itraconazole, Itraconazole, reference compound]
[1]; healthy participants
  TEAEs considered related to the drug: No TEAE was considered related

## CC[C@H](Nc1ncnc2[nH]cnc12)c1nc2cccc(F)c2c(=O)n1-c1ccccc1 [idelalisib]
[12]
  associated toxicities: transaminitis (increased alanine and aspartate transaminase levels), colitis, diarrhea, and pneumonitis

## CC(=O)N1CCN(c2ccc(OCC3COC(Cn4ccnc4)(c4ccc(Cl)cc4Cl)O3)cc2)CC1 (stereo not shown) [ketoconazole]
[13]
  effect on parsaclisib metabolism: inhibited parsaclisib metabolism

## C[C@H](Nc1ncnc2[nH]cnc12)c1cc2cccc(Cl)c2c(=O)n1-c1ccccc1 [duvelisib]
[12]
  associated toxicities: transaminitis (increased alanine and aspartate transaminase levels), colitis, diarrhea, and pneumonitis
